# Laboratory results taken from patent US11161850B2, “Fused pyrazine derivatives as A2A / A2B inhibitors” (Incyte Corporation, priority 2018, dated 2021).
# Like-named read-outs stand apart in the source and are kept apart here.
# Tests used:
# Adenosine A2A = Adenosine A2A (Homo sapiens (Human), UniProt P29274); experiment: A2A Tag-Lite HTRF assay; assay type: binding
# Excerpt: Example C. A2A Tag-Lite® HTRF Assay
# [1] = biological target: human adenosine A2B receptor (Homo sapiens (Human), UniProt P29275); experiment: Adenosine A2B Receptor Cyclic AMP GS Assay; assay type: cell-based; details: HEK-293 cells expressing human A2B, agonist NECA 12 nM
# How it was run: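 Stably transfected HEK-293 cells were preincubated with compound for 30 min at room temperature, then stimulated with 12 nM NECA for 60 min. cAMP accumulation was read by FRET (665/620 ratio), and EC50 was fitted from percent of control versus log compound concentration.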
# [2] = read-out: A2A_Ki, Tag-Lite Adenosine A2A labeled cells, fluorescent ligand 12.5 nM
# [3] = Tag-Lite Adenosine A2A labeled cells, fluorescent ligand 12.5 nM, read-out: A2A_Ki
# Sequence of human adenosine A2B receptor (P29275 whole entry): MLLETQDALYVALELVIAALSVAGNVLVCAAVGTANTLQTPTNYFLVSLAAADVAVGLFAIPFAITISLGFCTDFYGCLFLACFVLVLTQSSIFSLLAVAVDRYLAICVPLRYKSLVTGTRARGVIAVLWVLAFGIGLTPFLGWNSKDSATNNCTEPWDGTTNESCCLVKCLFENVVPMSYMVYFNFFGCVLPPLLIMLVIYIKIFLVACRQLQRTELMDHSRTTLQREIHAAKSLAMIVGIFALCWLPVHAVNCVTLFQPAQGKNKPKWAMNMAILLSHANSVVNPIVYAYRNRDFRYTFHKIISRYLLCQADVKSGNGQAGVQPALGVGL
# Sequence of Adenosine A2A (P29274 whole entry): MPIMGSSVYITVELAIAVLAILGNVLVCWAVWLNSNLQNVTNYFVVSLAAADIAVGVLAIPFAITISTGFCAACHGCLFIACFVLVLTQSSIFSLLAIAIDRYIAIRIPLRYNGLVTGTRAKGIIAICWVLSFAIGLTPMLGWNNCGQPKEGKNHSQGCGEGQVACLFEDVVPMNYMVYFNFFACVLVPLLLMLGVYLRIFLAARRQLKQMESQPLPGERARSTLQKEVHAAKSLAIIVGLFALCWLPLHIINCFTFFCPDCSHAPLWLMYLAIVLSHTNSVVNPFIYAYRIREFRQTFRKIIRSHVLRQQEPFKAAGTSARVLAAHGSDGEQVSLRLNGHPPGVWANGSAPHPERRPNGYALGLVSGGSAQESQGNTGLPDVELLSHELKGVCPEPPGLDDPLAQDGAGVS
Compound,Ki (Adenosine A2A; [2]),EC50 ([1]; read-out: A2B_cAMP_EC50),Ki (Adenosine A2A; [3]),EC50 ([1]; A2B_cAMP_EC50 (nM)),Ki (Adenosine A2A)
"N#Cc1cccc(-c2nc(N)c3nc(C(O)c4ccccc4F)nn3c2-c2ccncn2)c1 (single isomer, unassigned) [Example 56, 3-(8-Amino-2-((2-fluorophenyl)(hydroxy)methyl)-5-(pyrimidin-4-yl)-[1,2,4]triazolo[1,5-a]pyrazin-6-yl)benzonitrile]",< 10 nM,< 10 nM,–,–,–
"Cc1cnccc1-c1c(-c2cccc(C#N)c2)nc(N)c2nc(Cc3ccccn3)nn12 [Example 44, 3-(8-Amino-5-(3-methylpyridin-4-yl)-2-(pyridin-2-ylmethyl)-[1,2,4]triazolo[1,5-a]pyrazin-6-yl)benzonitrile]",–,–,< 10 nM,< 10 nM,–
"CN1CCC2(CN(Cc3cccc(F)c3Cc3nc4c(N)nc(-c5cccc(C#N)c5)c(-c5ccncn5)n4n3)C2)C1=O [Example 66, 3-(8-amino-2-(2-fluoro-6-((6-methyl-5-oxo-2,6-diazaspiro[3.4]octan-2-yl)methyl)benzyl)-5-(pyrimidin-4-yl)-[1,2,4]triazolo[1,5-a]pyrazin-6-yl)benzonitrile]",–,–,< 10 nM,< 10 nM,–
"N#Cc1cccc(-c2nc(N)c3nc(Cc4c(F)cccc4CN4CCN5C(=O)CCC5C4)nn3c2-c2ccncn2)c1 (stereo not drawn) [Example 67, 3-(8-amino-2-(2-fluoro-6-((6-oxohexahydropyrrolo[1,2-a]pyrazin-2(1H)-yl)methyl)benzyl)-5-(pyrimidin-4-yl)-[1,2,4]triazolo[1,5-a]pyrazin-6-yl)benzonitrile]",–,–,< 10 nM,< 10 nM,–
"Cc1cc(-c2c(-c3cccc(C#N)c3)nc(N)c3nc(C(O)c4c(F)cccc4F)nn23)cc(C)n1 (single isomer, unassigned) [Example 94, 3-(8-amino-2-((2,6-difluorophenyl)(hydroxy)methyl)-5-(2,6-dimethylpyridin-4-yl)-[1,2,4]triazolo[1,5-a]pyrazin-6-yl)benzonitrile]",–,–,–,10 to 100 nM,< 10 nM
"N#Cc1cccc(-c2nc(N)c3nc(C(O)c4c(F)cccc4F)nn3c2-c2cnco2)c1 (single isomer, unassigned) [Example 106, 3-(8-amino-2-((2,6-difluorophenyl)(hydroxy)methyl)-5-(oxazol-5-yl)-[1,2,4]triazolo[1,5-a]pyrazin-6-yl)benzonitrile]",< 10 nM,< 10 nM,–,–,–
"Cc1ncoc1-c1c(-c2cccc(C#N)c2)nc(N)c2nc(C(NCCO)c3c(F)cccc3F)nn12 (stereo not drawn) [Example 79, 3-(8-amino-2-((2,6-difluorophenyl)((2-hydroxyethyl)amino)methyl)-5-(4-methyloxazol-5-yl)-[1,2,4]triazolo[1,5-a]pyrazin-6-yl)benzonitrile]",–,–,< 10 nM,< 10 nM,–
"CCNC(=O)c1cc2c(N)nc(-c3cccc(C#N)c3)c(C3(C(F)(F)F)CC3)n2n1 [Example 6, 4-Amino-6-(3-cyanophenyl)-N-ethyl-7-(1-(trifluoromethyl)cyclopropyl)pyrazolo[1,5-a]pyrazine-2-carboxamide]",–,–,–,> 1000 nM,10 to 100 nM
"CNC(c1nc2c(N)nc(-c3cccc(C#N)c3)c(-c3ocnc3C)n2n1)c1c(F)cccc1F (stereo not drawn) [Example 78, 3-(8-amino-2-((2,6-difluorophenyl)(methylamino)methyl)-5-(4-methyloxazol-5-yl)-[1,2,4]triazolo[1,5-a]pyrazin-6-yl)benzonitrile]",–,–,< 10 nM,< 10 nM,–
"N#Cc1cccc(-c2nc(N)c3nc(C(O)c4cccc(F)c4F)nn3c2-c2ccncn2)c1 (single isomer, unassigned) [Example 53, 3-(8-Amino-2-((2,3-difluorophenyl)(hydroxy)methyl)-5-(pyrimidin-4-yl)-[1,2,4]triazolo[1,5-a]pyrazin-6-yl)benzonitrile]",–,–,–,< 10 nM,< 10 nM
"N#Cc1cccc(-c2cn3nc(Cc4ncccc4Nc4cnn(Cc5ccncc5)c4)nc3c(N)n2)c1F [Example 120, 3-(8-Amino-2-((3-((1-(pyridin-4-ylmethyl)-1H-pyrazol-4-yl)amino)pyridin-2-yl)methyl)-[1,2,4]triazolo[1,5-a]pyrazin-6-yl)-2-fluorobenzonitrile]",–,–,< 10 nM,10 to 100 nM,–
"N#Cc1cccc(-c2nc(N)c3cc(Cc4ccccc4F)nn3c2C#N)c1 [Example 20, 4-Amino-6-(3-cyanophenyl)-2-(2-fluorobenzyl)pyrazolo[1,5-a]pyrazine-7-carbonitrile]",–,–,< 10 nM,< 10 nM,–
"Cc1nc(C(O)C(F)(F)F)c(-c2c(-c3cccc(C#N)c3F)nc(N)c3nc(Cc4ccccn4)nn23)o1 (stereo not drawn) [Example 88, 3-(8-amino-5-(2-methyl-4-(2,2,2-trifluoro-1-hydroxyethyl)oxazol-5-yl)-2-(pyridin-2-ylmethyl)-[1,2,4]triazolo[1,5-a]pyrazin-6-yl)-2-fluorobenzonitrile]",–,–,< 10 nM,10 to 100 nM,–
"CN1CCC2(CN(Cc3cccc(F)c3Cc3nc4c(N)nc(-c5cccc(C#N)c5F)cn4n3)C2)C1=O [Example 85, 3-(8-amino-2-(2-fluoro-6-((6-methyl-5-oxo-2,6-diazaspiro[3.4]octan-2-yl)methyl)benzyl)-[1,2,4]triazolo[1,5-a]pyrazin-6-yl)-2-fluorobenzonitrile]",–,–,< 10 nM,10 to 100 nM,–
"Cc1cc(-c2c(-c3cccc(C#N)c3)nc(N)c3nc(C(O)c4c(F)cccc4F)nn23)cc(C)n1 (single isomer, unassigned) [Example 95, 3-(8-amino-2-((2,6-difluorophenyl)(hydroxy)methyl)-5-(2,6-dimethylpyridin-4-yl)-[1,2,4]triazolo[1,5-a]pyrazin-6-yl)benzonitrile]",< 10 nM,10 to 100 nM,–,–,–
"N#Cc1cccc(-c2nc(N)c3nc(Oc4ccccc4F)nn3c2-c2ccncn2)c1 [Example 39, 3-(8-Amino-2-(2-fluorophenoxy)-5-(pyrimidin-4-yl)-[1,2,4]triazolo[1,5-a]pyrazin-6-yl)benzonitrile]",–,–,< 10 nM,< 10 nM,–
"N#Cc1cccc(-c2nc(N)c3nc(Cn4ncc5ccccc54)nn3c2-c2ccncn2)c1 [Example 48, 3-(2-((1H-Indazol-1-yl)methyl)-8-amino-5-(pyrimidin-4-yl)-[1,2,4]triazolo[1,5-a]pyrazin-6-yl)benzonitrile]",–,–,< 10 nM,10 to 100 nM,–
"Cn1nc(-c2c(-c3cccc(C#N)c3)nc(N)c3nc(Cc4ccccn4)nn23)ccc1=O [Example 29, 3-(8-Amino-5-(1-methyl-6-oxo-1,6-dihydropyridazin-3-yl)-2-(pyridin-2-ylmethyl)-[1,2,4]triazolo[1,5-a]pyrazin-6-yl)benzonitrile]",–,–,–,< 10 nM,< 10 nM
"Cc1ncoc1-c1c(-c2cccc(C#N)c2)nc(N)c2nc(C(=O)N3CCC3)nn12 [Example 61, 3-(8-Amino-2-(azetidine-1-carbonyl)-5-(4-methyloxazol-5-yl)-[1,2,4]triazolo[1,5-a]pyrazin-6-yl)benzonitrile]",–,–,< 10 nM,< 10 nM,–
"N#Cc1cccc(-c2nc(N)c3nc(Cc4ccccn4)nn3c2-c2ccc(O)nc2)c1 [Example 62, 3-(8-amino-5-(6-hydroxypyridin-3-yl)-2-(pyridin-2-ylmethyl)-[1,2,4]triazolo[1,5-a]pyrazin-6-yl)benzonitrile]",–,–,< 10 nM,< 10 nM,–
"N#Cc1cccc(-c2nc(N)c3nc(C(O)c4ccccc4)nn3c2-c2ccncn2)c1 (stereo not drawn) [Example 59, 3-(8-Amino-2-(hydroxy(phenyl)methyl)-5-(pyrimidin-4-yl)-[1,2,4]triazolo[1,5-a]pyrazin-6-yl)benzonitrile]",–,–,< 10 nM,10 to 100 nM,–
